Source: US20120222139A1, “Cancer Specific Mitotic Network” (THE REGENTS OF THE UNIVERSITY OF CALIFORNIA, priority 2009, published 2012)

Key:
Format in all cases: cell-based, human
[1] = tested on: panel of 53 breast cancer cell lines; assay: Cell viability/growth assay and dose response (GI50), CellTiter-Glo; settings: for GI50 values in cell lines with a high MNAI as compared to a low MNAI: breast cancer cell lines, FIG. 6; for effectiveness by breast cancer subtype: panel of 50 breast cancer cell lines that included both basal and luminal cell lines
Protocol: Human non-malignant and breast cancer cell lines, established from normal and human breast cancer samples, are publicly available and were used in the development of the mitotic network. The source of these cells includes nearly 55 well-characterized breast cell lines with genomic information (i.e. gene copy numbers of various genes) and gene expression data such as gene signatures characteristic of each cell line. Information that directs optimal incubation conditions are detailed in The cell incubational condition of the cell lines was shown reference (Neve, R. M. et al. Cancer Cell 10, 515-527 (2006).
The inhibitor compounds used were small molecule inhibitors. Theses small-molecule inhibitors for PLK1 (GSK461364), CENPE (GSK923295) and AURKB (GSK1070916) were provided by GlaxoSmithKline Inc. Stock solutions were made at a concentration of 10 mM in DMSO and stored at −20° C. Compounds were diluted (1:5 serial dilution), ranging between 0.0768 nM to 30 μM.
The cell viability and growth assay and dose response (GI50) experiments were conducted following dose-response curves that were determined according to the National Cancer Institute (NCI), National Institute of Health (NIH) guidelines. In brief, cell suspensions were plated into 96-well plates in 100 μl growth media. Inoculates were allowed a pre-incubation period of 24 hours at 37° C. for stabilization. Cells were treated with 9 doses in triplicates for 72 hours with GSK461364 or GSK1070916. Cell proliferation was measured with CellTiter-Glo® Luminescent Cell Viability Assay (Promega, Madison, Wis.). After subtraction of the baseline (the viability of the cells just before treatment, time 0), the absorbance was plotted. Total growth inhibition doses and 50% growth inhibition doses GI50 were calculated by GraphPad Prism4 software (GraphPad Software, Inc., La Jolla, Calif.).
Human non-malignant and breast cancer cell lines have been established from normal and human breast cancer samples. The cell lines described in this study derived from 49 malignant and 4 non-malignant breast tissues and growth conditions for the cell lines have been reported previously This resource consists of nearly 54 well-characterized breast cell lines with information on genomic and gene expression signatures. The cell incubational condition of the cell lines was shown previously by some of the inventors in Neve, R. M. et al. Cancer Cell 10, 515-527 (2006).
The small-molecule inhibitors for PLK1 (GSK461364), CENPE (GSK923295) and AURKB (GSK1070916) were provided by GlaxoSmithKline, Inc. Stock solutions were made at a concentration of 10 mM in DMSO and stored at −20° C. Compounds were diluted (1:5 serial dilution) to produce test drug concentrations ranging from 0.0768 nM to 30 μM.
Dose-response curves were determined according to the National Cancer Institute NIH guidelines. In brief, cell suspensions were aliquoted into 96-well plates in 100 μl growth media. Inoculates were allowed a preincubation period of 24 hours at 37° C. for stabilization. Cells were treated with 9 doses in triplicate for 72 hours with GSK461364 or GSK1070916. Cell proliferation was measured with CellTiter-Glo® Luminescent Cell Viability Assay (Promega, Madison. WI). After subtraction of the baseline (an estimate of the number of the cells just before treatment, time 0), the absorbance was plotted. Total growth inhibition doses and 50% growth inhibition doses GI50 were calculated by GraphPad Prism4 software (GraphPad Software, Inc., La Jolla, Calif.).
The correlation among the cellular GI50 values of GSK461364, GSK1070916 and GSK92325 was examined by Pearson correlation test. Tumor expression profiles were clustered using the mitotic network genes. Kaplan-Meier survival curves were generated for patients stratified into groups of high (upper tertile) and low (lower tertile) MNAI to evaluate differences in disease-free survival (DFS). […]

[2] = tested on: sensitive (HCC38) or resistant (MDAMB175) breast cancer cell line; assay: Treatment with mitotic apparatus inhibitors alone or in combination of two; settings: HCC38 (sensitive) and MDAMB175 (resistant), FIG. 8
Protocol: Dose response to GSK461364, GSK923295 and GSK1070916 was assayed individually or in combination in different breast cancer subtypes. FIG. 8A is a graph of response to single and combination doses of PLK1 and AURKB inhibitors; FIG. 8B is a graph of response to single and combination doses of PLK1 and CENPE inhibitors; and FIG. 8C is a graph of response to single and combination doses of CENPE and AURKB inhibitors.
In that case, combinations of mitotic apparatus inhibitors would not be expected to show additive or synergistic effects. We tested this by treatment of sensitive and resistant breast cancer cell lines with GSK461364 or GSK1070916 or GSK923295 alone and in combination two of them at different doses. […] That being the case, deployment of drugs targeting other genes in the mitotic apparatus network might contribute to development of a mitotic apparatus therapeutic armamentarium that could effectively counter development of drug resistance and provide durable treatments that will be effective against metastasis. Small molecular inhibitors have already been reported as under development for AURKA (MLN8054), CHEK2 (PD-321852). […] Work developing the mitotic network informs that inhibitors of these genes will be preferentially be effective in tumors with high MNAIs and are thus top candidates for drug development.
This was tested by treating a sensitive (HCC38) or resistant (MDAMB175) breast cancer cell line with GSK461364, GSK1070916 and GSK923295 either alone or in combination.

[3] = tested on: HJURP protein in MDAMB231; assay: HJURP protein level by Western blot after HJURP shRNA; settings: stable transfectants in MDAMB231, Western blotting, FIG. 20e
Protocol: For Western blots, […] of protein extracts per lane were electrophoresed with denaturing sodium doedecyl sulfate (SDS)-polyacrylamide gels (4% to 12%), transferred to PVDF membranes (Millipore, Temecula, Calif., USA), and incubated with HJURP antibody 1:500 (Rabbit, HPA008436, Sigma-Aldrich, St. Louis, Mo., USA) and actin (goat, sc-1616, Santa Cruz Biotechnology, Santa Cruz, Calif., USA) diluted with blocking buffer (927-40000, LI-COR Biosciences, Lincoln, Nebr., USA) The membranes were washed four times with TBST and treated with 1:10,000 dilution of Alex Fluor 680 donkey anti-rabbit (A10043 Invitrogen, Carlsbad, Calif., USA) and IRDye 800CW conjugated donkey anti-goat (611-731-127, Rockland, Gilbertsville, Pa., USA) to detect HJURP and actin respectively. The signals were detected by infrared imaging (LI-COR Biosciences, Lincoln, Nebr., USA). Images were recorded as TIFF files for quantification.
Protein levels were measured by quantifying infrared imaging recorded from labeled antibodies using Scion Image. For each protein, the blots were made for 7 sets of 11 cell lines, each set including the same pair (SKBR3 and MCF12A) to permit intensity normalization across sets. […]
Seventy-two hours after radiation, we measured cell growth and apoptosis using high-content image analysis. […]

[4] = tested on: MDAMB231 breast cancer cells; assay: Radiation sensitivity, high content imaging of cell number and apoptotic cells; settings: MDAMB231, 72 hours after X-ray radiation, FIG. 20f
Protocol: MDAMD231 cells are more sensitive to radiation treatment than T47D cells. […] There are more apoptosis in MDAMB231 cells than T47D cells. […] BT20 cells are more sensitive to radiation treatment than MCF10A cells. […] There are more apoptosis in BT20 cells than MCF10A cells.
High content imaging to assess cell number and apoptotic cells. The effects on cell growth and apoptosis were assessed by a Cellomics high-content image screening system (Cellomics, Thermo Fisher Scientific Inc., Pittsburgh, Pa., USA) after breast cancer cells exposed to a single dose of 0 (sham), 1, 2, 4, 6, 8 or 10 Gy X-ray radiation emitted from an irradiator (model 43855F, Faxitron X-ray Corporation, Lincolnshire, Ill., USA). Live cells in 96 well plates with six replicates from each treatment were stained with 1 μmol/L YO-PRO-1 positive cells.
Seventy-two hours after radiation, we measured cell growth and apoptosis using high-content image analysis. […] Similar results were found in additional cell lines BT20 with high levels of HJURP and MCF10A with low levels of HJURP (FIG. 20c, d). Finally we designed […] (shRNA) against HJURP and generated stable transfectants in a human breast cancer cell line (MDAMB231).

[5] = tested on: cells with HJURP shRNA; assay: Growth of cells with HJURP shRNA (data not shown)

**Q.** CC(C)Oc1ccc(C(=O)N[C@H](CNC(=O)CN(C)C)Cc2ccc(-c3cn4cccc([C@H](C)O)c4n3)cc2)cc1Cl [GSK923295] was tested. Which “GI50 values in cell lines with a high MNAI as compared to a low MNAI” value (“GI50 values … compared to a low MNAI” below) [1] did it give?
**A.** Its value is “significantly lower in cell lines with a high MNAI”.

**Q.** What about the “effectiveness by breast cancer subtype” value [1] of the same molecule?
**A.** The value was “most effective against basal cell breast cancer subtypes”.

**Q.** And the “response to combination of compounds against two different mitotic apparatus proteins versus alone” value [2]?
**A.** The value was “did not increase the response in either cell type”.

**Q.** C[C@@H](Oc1cc(-n2cnc3ccc(CN4CCN(C)CC4)cc32)sc1C(N)=O)c1ccccc1C(F)(F)F [GSK461364] was tested. Which “GI50 values … compared to a low MNAI” value [1] did it give?
**A.** Its value is “significantly lower in cell lines with a high MNAI”.

**Q.** What about the “effectiveness by breast cancer subtype” value [1] of the same molecule?
**A.** Its value is “most effective against basal cell breast cancer subtypes”.

**Q.** And the “response to combination of compounds against two different mitotic apparatus proteins versus alone” value [2]?
**A.** Its value is “did not increase the response in either cell type”.

**Q.** For CCn1cc(-c2ccnc3[nH]c(-c4cccc(CN(C)C)c4)cc23)c(-c2ccc(NC(=O)N(C)C)cc2)n1 [GSK1070916], which “GI50 values … compared to a low MNAI” value [1] is on record?
**A.** Its value is “significantly lower in cell lines with a high MNAI”.

**Q.** And the “effectiveness by breast cancer subtype” value [1]?
**A.** The value was “most effective against basal cell breast cancer subtypes”.

**Q.** And the “response to combination of compounds against two different mitotic apparatus proteins versus alone” value [2]?
**A.** The value was “did not increase the response in either cell type”.

B1: HJURP shRNA: shRNA against HJURP (SEQ ID NO: 56 and 57) cloned into pSUPER.retro.puro retroviral vector (nucleic acid)
sense: GATCCCCGAGCGATTCATCTTCATCATTCAAGAGATGATGAAGATGAATCGCTCTTTTTGGAA
antisense: AGCTTTTCCAAAAAGAGCGATTCATCTTCATCATCTCTTGAATGATGAAGATGAATCGCTCGGG
**Q.** How did the “down-regulation of HJURP protein levels” value [3] turn out when B1 was run?
**A.** Its value is 75%.

**Q.** What about the sensitivity to radiation [4] of the same molecule?
**A.** The sensitivity to radiation was “reduced the sensitivity to radiation”.

**Q.** And the cell growth [5]?
**A.** Its cell growth is “grew slowly”.
